Assay results published in PubChem BioAssay AID248 (DTP/NCI, 2004).
Values joined by “and” are separate entries in the source; they are usually repeats but may differ in a detail not shown here. Equal values may be shown once. Toxic doses and inconclusive results are not listed. Cut-off read from the data, not from the text of the source: active = T/C of 150% or more; inactive = T/C below 125%.

System: L1210 leukemia ip in BDF1 mice, survival T/C
Test: NCI In Vivo Anticancer Drug Screen. Data for tumor model L1210 Leukemia (intraperitoneal) in B6D2F1 (BDF1) mice
Details: endpoint: mean survival time, higher = longer survival
Summary of the method: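 Each compound was tested against a transplantable tumor grown in mice. The endpoint was survival, with treated animals benchmarked against vehicle controls as a simple ratio.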

[1] = dose: 100.0 mg/kg/injection, schedule: Q01DX001 (ip), vehicle: saline
[2] = dose: 200.0 mg/kg/injection, schedule: Q01DX001 (ip), vehicle: saline
[3] = dose: 400.0 mg/kg/injection, schedule: Q01DX001 (ip), vehicle: saline
[4] = dose: 100.0 mg/kg/injection, schedule: Q01DX009 (ip), vehicle: saline with Tween-80
[5] = dose: 75.0 mg/kg/injection, schedule: Q01DX001 (ip), vehicle: carboxymethylcellulose (CMC)
[6] = dose: 150.0 mg/kg/injection, schedule: Q01DX001 (ip), vehicle: carboxymethylcellulose (CMC)
[7] = dose: 50.0 mg/kg/injection, schedule: Q01DX001 (ip), vehicle: saline
[8] = dose: 100.0 mg/kg/injection, schedule: Q01DX009 (ip), vehicle: Klucel (hydroxypropylcellulose) (HPC)
[9] = dose: 100.0 mg/kg/injection, schedule: Q04DX003 (ip), vehicle: Klucel (hydroxypropylcellulose) (HPC)
[10] = dose: 200.0 mg/kg/injection, schedule: Q01DX009 (ip), vehicle: Klucel (hydroxypropylcellulose) (HPC)
[11] = dose: 200.0 mg/kg/injection, schedule: Q04DX003 (ip), vehicle: Klucel (hydroxypropylcellulose) (HPC)
[12] = dose: 400.0 mg/kg/injection, schedule: Q01DX009 (ip), vehicle: Klucel (hydroxypropylcellulose) (HPC)
[13] = dose: 400.0 mg/kg/injection, schedule: Q04DX003 (ip), vehicle: Klucel (hydroxypropylcellulose) (HPC)

Measured: T/C

[O-][N+](=C\c1ccccc1)/[N+]([O-])=C\c1ccccc1
inactive: [1] 98 % of control | [2] 95 % of control | [3] 98 % of control

COc1cc(CC#N)cc(OC)c1
inactive: dose: 50.0 mg/kg/injection, schedule: Q01DX009 (ip), vehicle: saline with Tween-80 102 % of control | [4] 88 % of control

COC(=O)/C=C(\C(=O)OC)c1c(-c2ccccc2)[nH]c2ccccc12
inactive: [5] 92 % of control | [6] 89 % of control | dose: 300.0 mg/kg/injection, schedule: Q01DX001 (ip), vehicle: carboxymethylcellulose (CMC) 94 % of control

CC(C)(C)c1ccc(C(=O)O)cc1.[Cu+2]
inactive: dose: 2.5 mg/kg/injection, schedule: Q01DX009 (ip), vehicle: Klucel (hydroxypropylcellulose) (HPC) 109 % of control | dose: 5.0 mg/kg/injection, schedule: Q01DX009 (ip), vehicle: Klucel (hydroxypropylcellulose) (HPC) 101 % of control | dose: 10.0 mg/kg/injection, schedule: Q01DX009 (ip), vehicle: Klucel (hydroxypropylcellulose) (HPC) 106 % of control | dose: 20.0 mg/kg/injection, schedule: Q01DX009 (ip), vehicle: Klucel (hydroxypropylcellulose) (HPC) 101 % of control

O=[N+]([O-])c1ccc(N(CCO)CCO)cc1
inactive: [7] 96 % of control | [1] 100 % of control | [2] 100 % of control | [3] 96 % of control

N#Cc1c(N)sc(N)c1C#N
inactive: [8] 96 % of control | [9] 100 % of control | [10] 89 % of control | [11] 98 % of control | [12] 96 % of control | [13] 98 % of control

CC1CCCC(C)N1C(=O)Nc1cccc(F)c1 (centres undefined)
inactive: [8] 99 % of control | [10] 101 % of control | [12] 94 % of control

COC1=NS(=O)(=O)CC(N2C(=O)CCC2=O)O1 (centres undefined)
inactive: [9] 98 % of control | [11] 109 % of control | [13] 101 % of control

O=C(CCl)NC1CCC(CC2CCCCC2)CC1 (centres undefined)
inactive: [9] 99 % of control | [11] 93 % of control | [13] 89 % of control

O=C1c2ccccc2C(=O)N1[N+](=O)[O-]
inactive: [7] 101 % of control | [1] 107 % of control | [2] 107 % of control | [3] 103 % of control

O=[N+]([O-])c1ccc(C=Nc2ccccc2-c2ccccc2)s1
inactive: [9] 98 % of control | [11] 98 % of control | [13] 95 % of control

CCOC(=O)CNC(=O)Cn1ccc(=O)[nH]c1=O
inactive: [7] 96 % of control | [1] 98 % of control | [2] 98 % of control

Brc1ncc2ccccc2c1Br
inactive: [9] 108 % of control | [11] 94 % of control

O=C(NC(=S)N1CC=CCC1)c1ccccc1
inactive: dose: 100.0 mg/kg/injection, schedule: Q04DX002 (ip), vehicle: gum acacia 97 % of control | dose: 200.0 mg/kg/injection, schedule: Q04DX002 (ip), vehicle: gum acacia 100 % of control | dose: 400.0 mg/kg/injection, schedule: Q04DX002 (ip), vehicle: gum acacia 93 % of control

CCOc1ccc(/C=C2\N=C(c3ccc([N+](=O)[O-])cc3)OC2=O)cc1
inactive: [8] 97 % of control | [10] 87 % of control | [12] 94 % of control

Cc1ccc(S(=O)(=O)OCC2OCOC2C2OCOC2C)cc1 (centres undefined)
inactive: dose: 100.0 mg/kg/injection, schedule: Q01DX001 (ip), vehicle: saline with Tween-80 104 % of control | dose: 200.0 mg/kg/injection, schedule: Q01DX001 (ip), vehicle: saline with Tween-80 93 % of control | dose: 400.0 mg/kg/injection, schedule: Q01DX001 (ip), vehicle: saline with Tween-80 97 % of control

CCC(C)Nc1ccc([N+](=O)[O-])cc1 (centres undefined)
inactive: dose: 75.0 mg/kg/injection, schedule: Q01DX009 (ip), vehicle: other 95 % of control | dose: 150.0 mg/kg/injection, schedule: Q01DX009 (ip), vehicle: other 102 % of control | dose: 300.0 mg/kg/injection, schedule: Q01DX009 (ip), vehicle: other 113 % of control

O=c1c2cc([N+](=O)[O-])ccc2[nH]c2c1ccc1ccccc12
inactive: dose: 100.0 mg/kg/injection, schedule: Q04DX003 (ip), vehicle: saline 92 % of control | dose: 200.0 mg/kg/injection, schedule: Q04DX003 (ip), vehicle: saline 92 % of control | dose: 400.0 mg/kg/injection, schedule: Q04DX003 (ip), vehicle: saline 90 % of control

O=c1c2ccccc2[nH]c2c([N+](=O)[O-])cccc12
inactive: [4] 100 % of control | dose: 200.0 mg/kg/injection, schedule: Q01DX009 (ip), vehicle: saline with Tween-80 99 % of control | dose: 400.0 mg/kg/injection, schedule: Q01DX009 (ip), vehicle: saline with Tween-80 87 % of control

CCS(=O)(=O)CCNC(=O)NS(=O)(=O)c1ccc(C)cc1
inactive: dose: 100.0 mg/kg/injection, schedule: Q04DX003 (ip), vehicle: saline with Tween-80 97 % of control | dose: 200.0 mg/kg/injection, schedule: Q04DX003 (ip), vehicle: saline with Tween-80 97 % of control | dose: 400.0 mg/kg/injection, schedule: Q04DX003 (ip), vehicle: saline with Tween-80 90 % of control

CCN(N=Nc1ccc(C)cc1)N=Nc1ccc(C)cc1
inactive: [8] 93 % of control | [9] 100 % of control | [10] 88 % of control | [11] 100 % of control | [12] 88 % of control | [13] 93 % of control

NC(CC(=O)CCl)C(=O)O (centres undefined)
inactive: dose: 9.4 mg/kg/injection, schedule: Q01DX009 (ip), vehicle: saline 107 % of control | dose: 18.8 mg/kg/injection, schedule: Q01DX009 (ip), vehicle: saline 102 % of control | dose: 22.0 mg/kg/injection, schedule: Q04DX003 (ip), vehicle: saline 121 % of control | [5] 121 % of control | dose: 75.0 mg/kg/injection, schedule: Q01DX009 (ip), vehicle: carboxymethylcellulose (CMC) 88 % of control | [6] 109 % of control

COc1c(OC)c(OC)c2c(=O)cc(-c3ccc4c(c3)OCO4)oc2c1OC
inactive: dose: 50.0 mg/kg/injection, schedule: Q01DX001 (ip), vehicle: other 103 % of control | dose: 100.0 mg/kg/injection, schedule: Q01DX001 (ip), vehicle: other 100 % of control | dose: 200.0 mg/kg/injection, schedule: Q01DX001 (ip), vehicle: other 100 % of control | dose: 400.0 mg/kg/injection, schedule: Q01DX001 (ip), vehicle: other 91 % of control

CCS(=O)(=O)CCOC(=O)c1ccc([N+](=O)[O-])cc1
inactive: dose: 100.0 mg/kg/injection, schedule: Q01DX001 (ip), vehicle: carboxymethylcellulose (CMC) 100 % of control | dose: 200.0 mg/kg/injection, schedule: Q01DX001 (ip), vehicle: carboxymethylcellulose (CMC) 105 % of control | dose: 400.0 mg/kg/injection, schedule: Q01DX001 (ip), vehicle: carboxymethylcellulose (CMC) 98 % of control

Cc1c2cnccc2c(C)c2c1[nH]c1ccccc12
inactive: dose: 25.0 mg/kg/injection, schedule: Q01DX Z (ip), vehicle: saline 104 % of control | dose: 50.0 mg/kg/injection, schedule: Q01DX Z (ip), vehicle: saline 102 % of control | dose: 75.0 mg/kg/injection, schedule: Q01DX Z (ip), vehicle: saline 100 % of control | [1] 97 % of control | dose: 100.0 mg/kg/injection, schedule: Q01DX Z (ip), vehicle: saline 102 % of control and 92 % of control | dose: 150.0 mg/kg/injection, schedule: Q01DX Z (ip), vehicle: saline 90 % of control | [2] 100 % of control | dose: 225.0 mg/kg/injection, schedule: Q01DX Z (ip), vehicle: saline 93 % of control | dose: 335.0 mg/kg/injection, schedule: Q01DX Z (ip), vehicle: saline 97 % of control and 98 % of control | [3] 100 % of control | dose: 500.0 mg/kg/injection, schedule: Q01DX Z (ip), vehicle: saline 113 % of control
